Laboratory results published in patent US20230365533A1, “BICYCLOHEPTANE PYRROLIDINE OREXIN RECEPTOR AGONISTS” (MERCK SHARP & DOHME CORP., priority 2021, published 2023).

Target: T1, human OX2R (Homo sapiens, UniProt O43614)
T1 construct: expressed in transfected cells; host or cells: CHO (Chinese hamster ovary) cells, grown under G418 selection
T1 sequence (O43614 1-444): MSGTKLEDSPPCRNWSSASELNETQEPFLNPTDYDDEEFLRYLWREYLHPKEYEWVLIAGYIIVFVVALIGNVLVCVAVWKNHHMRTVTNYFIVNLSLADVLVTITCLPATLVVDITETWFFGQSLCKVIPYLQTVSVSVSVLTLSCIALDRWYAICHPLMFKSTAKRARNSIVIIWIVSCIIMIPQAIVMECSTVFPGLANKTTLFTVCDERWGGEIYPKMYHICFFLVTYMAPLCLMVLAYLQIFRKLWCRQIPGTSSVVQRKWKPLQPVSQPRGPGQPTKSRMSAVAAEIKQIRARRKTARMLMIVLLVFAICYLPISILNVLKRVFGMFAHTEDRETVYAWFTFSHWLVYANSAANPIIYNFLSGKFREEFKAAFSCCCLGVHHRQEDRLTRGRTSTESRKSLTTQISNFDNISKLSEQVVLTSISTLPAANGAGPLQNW
Assay: IPOne (IP-1) orexin receptor agonist assay in CHO cells expressing human OX2R
Assay type: cell-based
Settings: IPOne assay, CHO cells expressing human OX2R, 2 hours incubation; read-out: hoX2R_IP IC50
Description: The utility of the compounds in accordance with the present invention as orexin receptor OX1R and/or OX2R agonists may be readily determined without undue experimentation by methodology well known in the art. Both the OX1R and/or OX2R G-coupled protein receptors (GPCRs) couple through the Gaq signaling pathway, which ultimately promotes calcium mobilization via inositol triphosphate (IP3) production. The half-life of IP-3 is relatively short, being rapidly metabolized to inositol monophosphate (IP-1), which can be readily detected using a commercially available assay kit (IP-One; Cisbio; cat #621PAPEC) coupled with a cell line expressing the target receptor(s) of interest. The utility of the compounds in accordance with the present invention as orexin receptor OX1R and/or OX2R agonists may be determined utilizing this assay.
In a typical experiment, the OX1 and OX2 receptor agonist activity is determined in accordance with the following general experimental method. Chinese hamster ovary (CHO) cells expressing human OX1R and/or the human OX2R were grown in Iscove's modified DMEM containing glutaMAX™, 1% G418, 100 U/mL penicillin, 100 μg/mL streptomycin and 10% heat-inactivated qualified fetal bovine serum (FBS). The OX2R cells were seeded at 10,000 cells/well/50 μL and the OX1R cells were seeded at 20,000 cells/well/50 μL into 384-well white tissue culture plates (Greiner; cat #781080). All cell/media reagents were from GIBCO-Invitrogen Corp. The seeded cell plate(s) were incubated at 37° C. with 5% CO2 and 85% humidity for 20-24 hours. On the day of the assay, assay-ready compound plates were prepared using an acoustic liquid handler (ECHO; Labcyte), which dispensed sufficient volume of test compound stock (10 mM in DMSO) or 100% DMSO to prepare 10 point, ½-log dilutions in a final volume of 202.5 nL/well in all test wells of a 384-well diamond plate (Labcyte). Following completion of assay-ready plates, importantly, the next three steps were performed with minimal delay: 1) 20 μl of 1×stimulation buffer was added to the compound plate using a Multidrop Combi (small cassette, Thermo Fisher Scientific cat #24073290); 2) culture medium was removed from the cell plate using the Bluewasher plate washer (gentle spin; BlueCatBio); 3) 14 μl of compound/stimulation buffer mixture was added to the cell plate using a Bravo liquid handler (Agilent) prior to incubating cell plates at 37° C. with 5% CO2 and 85% humidity for 1 or 2 hours (OX1R and OX2R, respectively). During this incubation, IP-one detection reagents were prepared (38:1:1 lysis buffer:D2:AB-cryptate reagents). Six μL of mixed detection reagents were added to the cell plate using a Multidrop Combi (small cassette, Thermo Fisher Scientific cat #24073290) and incubated 60 minutes at room temperature in the dark. Fluorescence signal was detected using an Envision plate reader (Perkin Elmer) [LANCE/DELFIA Dual Enh (Em: APC 665; Ex: Cy5 620)].
For each compound, data were fit to a four parameter logistic fit (ActivityBase software) and the EC50 was reported as the inflection point of the resulting curve. Percent effect for each test compound was determined as the percentage of sample raw value/mean max effect, where the mean max effect was derived from the mean raw value of 32 control wells per assay plate (using Orexin A (cat #003-30) at 1 μM for human OX1R and a reference compound at 1 uM with 100% activity previously established by comparison to Orexin A for human OX2R). The intrinsic orexin receptor agonist activity of a compound which may be used in the present invention may be determined by these assays.

SMILES	IC50
C[C@@H]1C[C@H](NS(C)(=O)=O)[C@H](CO[C@H]2CC[C@@]3(c4ncc(F)cn4)C[C@H]3C2)N1C(=O)OCC1CC(F)C1 (stereo partly drawn) [Example 49, (3-fluorocyclobutyl)methyl (2R,3S,5R)-2-((((1S,3S,6R)-6-(5-fluoropyrimidin-2-yl)bicyclo[4.1.0]heptan-3-yl)oxy)methyl)-5-methyl-3-(methylsulfonamido)pyrrolidine-1-carboxylate]	1.1 nM
C[C@@H]1C[C@H](NS(C)(=O)=O)[C@H](CO[C@H]2CC[C@@]3(c4ncc(F)cn4)C[C@H]3C2)N1C(=O)OC[C@H]1C[C@H]1F [Example 51, ((1R,2R)-2-fluorocyclopropyl)methyl (2R,3S,5R)-2-((((1S,3S,6R)-6-(5-fluoropyrimidin-2-yl)bicyclo[4.1.0]heptan-3-yl)oxy)methyl)-5-methyl-3-(methylsulfonamido)pyrrolidine-1-carboxylate]	1.3 nM
C[C@@H]1C[C@H](NS(C)(=O)=O)[C@H](CO[C@H]2CC[C@@]3(c4ncc(F)cn4)C[C@H]3C2)N1C(=O)OCCC(F)F [Example 52, 3,3-difluoropropyl (2R,3S,5R)-2-((((1S,3S,6R)-6-(5-fluoropyrimidin-2-yl)bicyclo[4.1.0]heptan-3-yl)oxy)methyl)-5-methyl-3-(methylsulfonamido)pyrrolidine-1-carboxylate]	1.4 nM
C[C@@H]1C[C@H](NS(C)(=O)=O)[C@H](CO[C@H]2CC[C@@]3(c4ncc(F)cn4)C[C@H]3C2)N1C(=O)OCC1(F)CCC1 [Example 53, (1-fluorocyclobutyl)methyl (2R,3S,5R)-2-((((1S,3S,6R)-6-(5-fluoropyrimidin-2-yl)bicyclo[4.1.0]heptan-3-yl)oxy)methyl)-5-methyl-3-(methylsulfonamido)pyrrolidine-1-carboxylate]	6.1 nM
C[C@@H]1C[C@H](NS(C)(=O)=O)[C@H](CO[C@H]2CC[C@@]3(c4ncc(F)cn4)C[C@H]3C2)N1C(=O)OCC(F)C1CCC1 (stereo partly drawn) [Example 54, 2-cyclobutyl-2-fluoroethyl (2R,3S,5R)-2-((((1S,3S,6R)-6-(5-fluoropyrimidin-2-yl)bicyclo[4.1.0]heptan-3-yl)oxy)methyl)-5-methyl-3-(methylsulfonamido)pyrrolidine-1-carboxylate]	6 nM
C[C@@H]1C[C@H](NS(C)(=O)=O)[C@H](CO[C@H]2CC[C@@]3(c4ncc(F)cn4)C[C@H]3C2)N1C(=O)OC[C@H]1[C@H](C)C1(F)F [Example 55, ((1R,3S)-2,2-difluoro-3-methylcyclopropyl)methyl (2R,3S,5R)-2-((((1S,3S,6R)-6-(5-fluoropyrimidin-2-yl)bicyclo[4.1.0]heptan-3-yl)oxy)methyl)-5-methyl-3-(methylsulfonamido)pyrrolidine-1-carboxylate]	1 nM
C[C@@H]1C[C@H](NS(C)(=O)=O)[C@H](CO[C@H]2CC[C@@]3(c4ncc(F)cn4)C[C@H]3C2)N1C(=O)O[C@H]1COC[C@@H]1F [Example 56, (3S,4S)-4-fluorotetrahydrofuran-3-yl (2R,3S,5R)-2-((((1S,3S,6R)-6-(5-fluoropyrimidin-2-yl)bicyclo[4.1.0]heptan-3-yl)oxy)methyl)-5-methyl-3-(methylsulfonamido)pyrrolidine-1-carboxylate]	9.2 nM
C[C@@H]1C[C@H](NS(C)(=O)=O)[C@H](CO[C@H]2CC[C@@]3(c4ncc(F)cn4)C[C@H]3C2)N1C(=O)OCC1(C)CC1(F)F (stereo partly drawn) [Example 57, (2,2-difluoro-1-methylcyclopropyl)methyl (2R,3S,5R)-2-((((1S,3S,6R)-6-(5-fluoropyrimidin-2-yl)bicyclo[4.1.0]heptan-3-yl)oxy)methyl)-5-methyl-3-(methylsulfonamido)pyrrolidine-1-carboxylate]	1.4 nM
CC(F)COC(=O)N1[C@H](C)C[C@H](NS(C)(=O)=O)[C@@H]1CO[C@H]1CC[C@@]2(c3ncc(F)cn3)C[C@H]2C1 (stereo partly drawn) [Example 58, 2-fluoropropyl (2R,3S,5R)-2-((((1S,3S,6R)-6-(5-fluoropyrimidin-2-yl)bicyclo[4.1.0]heptan-3-yl)oxy)methyl)-5-methyl-3-(methylsulfonamido)pyrrolidine-1-carboxylate]	2 nM
